Columns and labels:
CGA-snLuc cells = conditions: MEAlt assays; low levels of adulterant
From the text: (§1) To perform this assay, cells from the cell lines described in Example 1 were thawed using standard procedures and plated on Vitronectin coated wells of a 96-well plate in Essential 8 Flex medium with Revitacell supplement. Plating density for SOX2-snLuc cells was approximately 20,000 cells per well and for the CGA-snLuc cells, approximately 15,000 cells per well. Empty wells were filled with PBS to reduce variation in Nanoluciferase concentration related to evaporation. Cells were allowed to recover for 7-18 hours prior to exposure to test media.
For CGA-snLuc cells the activation of the reporter required medium that supported trophectoderm/placental differentiation, such as BAP medium. […] DAF-BAP contained DMEM with 25 mM HEPES and 4.5 g/L Glucose and without L-Glutamine, 100 ng/ml BMP-4, 1 μM A83-01, 0.1 μM PD173074, 5 mg/mL of AlbumiNZ Bovine Albumin Low Free Fatty Acid, and 40 μM forskolin. Media was pre-warmed prior to forskolin addition to prevent precipitation.
Following recovery from thawing, media was exchanged to the respective test medium for each cell line. […] Secreted Nanoluciferase was detected by removing 10% of the culture media and mixing in a white assay plate with substrate and buffer using the Promega Nano-Glo Luciferase Assay kit. Luminescence was measured with a BioTek Cytation 1 imaging reader. […]

SOX2-snLuc cells = conditions: MEAlt assays; low levels of adulterant
From the text: as §1
For SOX2-snLuc cells the test media was Essential 8 Flex.
Following recovery from thawing, media was exchanged to the respective test medium for each cell line. […] In the case of SOX2-snLuc cells, a baseline read of Luciferase expression was optionally performed prior to media exchange to assess variations in plating density or post-thaw recovery. Exposure to test medium was for 24-96 hours for SOX2-snLuc cells and 48-96 hours for CGA-snLuc cells. Secreted Nanoluciferase was detected by removing 10% of the culture media and mixing in a white assay plate with substrate and buffer using the Promega Nano-Glo Luciferase Assay kit. Luminescence was measured with a BioTek Cytation 1 imaging reader.
The assay was also tested in the context of detecting an adulterant, ethylene glycol (EG), that is known to affect viability of mouse embryos.

Molecule | detection of adulterant by the MEAlt assay (CGA-snLuc cells) | detection of adulterant by the MEAlt assay (SOX2-snLuc cells)
C=O [formaldehyde] | successfully detect low levels | successfully detect low levels
triton-x-100 | successfully detect low levels | successfully detect low levels
